The record followed here is ChEMBL document CHEMBL4311969, “Polygala tenuifolia-Acori tatarinowii herbal pair as an inspiration for substituted cinnamic α-asaronol esters: Design, synthesis, anticonvulsant activity, and inhibition of lactate dehydrogenase study” (Eur J Med Chem, 2019).

Data set [1] is described as follows: Drug uptake in Sprague-Dawley rat lungs at 50 mg/kg, po. The class given is ADME, organism-based, Lung. Particulars: in vivo.
A short description of data set [2]: Tmax in Sprague-Dawley rat kidney at 50 mg/kg, po. The data set is classed as ADME, organism-based.
Data set [3] is described as follows: Drug uptake in Sprague-Dawley rat brain at 50 mg/kg, po. The class given is ADME, organism-based. Particulars: in vivo.
Data set [4] addresses T1, GABA-A receptor; alpha-1/beta-2/gamma-2 (Homo sapiens, UniProt P14867+P18507+P47870).
T1 sequence (P14867 whole entry): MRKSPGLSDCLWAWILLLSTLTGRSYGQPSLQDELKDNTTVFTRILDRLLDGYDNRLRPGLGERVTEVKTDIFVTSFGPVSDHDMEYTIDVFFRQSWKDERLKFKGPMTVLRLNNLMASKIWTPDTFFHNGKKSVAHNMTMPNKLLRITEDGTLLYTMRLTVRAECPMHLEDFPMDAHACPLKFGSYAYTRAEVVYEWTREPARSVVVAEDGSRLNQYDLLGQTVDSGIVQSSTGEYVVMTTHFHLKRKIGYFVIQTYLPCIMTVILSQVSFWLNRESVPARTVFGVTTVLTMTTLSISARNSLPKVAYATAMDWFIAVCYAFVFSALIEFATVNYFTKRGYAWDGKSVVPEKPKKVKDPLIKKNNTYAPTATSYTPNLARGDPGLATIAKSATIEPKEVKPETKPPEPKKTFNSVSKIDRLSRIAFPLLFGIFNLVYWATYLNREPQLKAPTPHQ
T1 sequence (P47870 whole entry): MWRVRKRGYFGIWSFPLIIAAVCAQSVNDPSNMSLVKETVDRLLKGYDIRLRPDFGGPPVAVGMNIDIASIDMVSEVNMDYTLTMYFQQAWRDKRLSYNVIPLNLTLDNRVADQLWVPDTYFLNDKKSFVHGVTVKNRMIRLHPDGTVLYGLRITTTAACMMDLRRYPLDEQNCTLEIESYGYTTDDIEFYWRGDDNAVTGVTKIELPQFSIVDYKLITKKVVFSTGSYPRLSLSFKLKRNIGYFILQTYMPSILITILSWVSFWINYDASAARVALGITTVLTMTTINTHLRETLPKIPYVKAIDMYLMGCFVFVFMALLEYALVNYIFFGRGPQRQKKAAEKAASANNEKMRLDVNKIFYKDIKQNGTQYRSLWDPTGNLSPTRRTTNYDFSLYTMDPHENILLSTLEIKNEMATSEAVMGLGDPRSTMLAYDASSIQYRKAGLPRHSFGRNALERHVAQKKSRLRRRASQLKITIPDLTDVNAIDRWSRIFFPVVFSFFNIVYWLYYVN
T1 sequence (P18507 whole entry): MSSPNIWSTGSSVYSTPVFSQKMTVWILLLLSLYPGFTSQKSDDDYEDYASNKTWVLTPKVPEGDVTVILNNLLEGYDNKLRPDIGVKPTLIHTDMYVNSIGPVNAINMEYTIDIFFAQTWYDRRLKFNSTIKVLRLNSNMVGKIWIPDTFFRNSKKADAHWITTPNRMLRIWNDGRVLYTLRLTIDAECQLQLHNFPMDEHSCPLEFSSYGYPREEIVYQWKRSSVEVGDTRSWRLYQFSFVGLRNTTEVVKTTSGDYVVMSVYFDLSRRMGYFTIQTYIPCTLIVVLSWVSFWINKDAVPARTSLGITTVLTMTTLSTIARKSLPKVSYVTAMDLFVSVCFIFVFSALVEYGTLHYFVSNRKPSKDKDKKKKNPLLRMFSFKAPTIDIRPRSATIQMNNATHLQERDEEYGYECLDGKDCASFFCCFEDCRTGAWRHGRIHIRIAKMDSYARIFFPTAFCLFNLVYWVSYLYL
Put plainly: Agonist activity at GABA alpha1beta2gamma2 receptor in human HEK293T at -50 mV holding potential by whole cell voltage clamp assay. The class given is protein-complex assay.

Data set [5] is described as follows: Drug uptake in Sprague-Dawley rat heart at 50 mg/kg, po. The data set is classed as ADME, organism-based. Particulars: in vivo.
Data set [6] can be described thus: Noncompetitive inhibition of human LDH5 at 0.5 mM using sodium pyruvate as substrate by UV-VIS spectrophotometry method based Lineweaver-Burk plot analysis.
Data set [7] concerns Mus musculus. Put plainly: Potency index, ratio of ED50 of stiripentol to ED50 of compound anticonvulsant activity in ip dosed Kunming mouse assessed as MES-induced hind limb extension administered 0.5 hrs before MES stimulation. The class given is functional.
Data set [8] can be described thus: Noncompetitive inhibition of human LDH1 at 0.5 mM using sodium pyruvate as substrate by UV-VIS spectrophotometry method based Lineweaver-Burk plot analysis.
Data set [9] has as its system Mus musculus. Put plainly: Anticonvulsant activity in Kunming mouse assessed as MES-induced hind limb extension at 100 mg/kg, ip administered 3 hrs before MES stimulation. The class given is functional, organism-based.
The test system of data set [10] is Mus musculus. Kind of data set: Anticonvulsant activity in Kunming mouse assessed as MES-induced hind limb extension at 100 mg/kg, ip administered 0. 5 hrs before MES stimulation relative to control. The class given is functional.

Calls of active or inactive are those of the source. The calls are words filed in the database; no cut-off is given here.

As to `COc1cc(OC)c(OC)cc1/C=C/COC(=O)/C=C/c1c(OC)cc(OC)c(OC)c1OC`, the Drug uptake result in data set [1], in data set [3] and in data set [5] was “Active” each time. Besides, in [2], the Tmax was 1 h. The concentration giving a half-maximal response (EC50) in data set [4] turned out to be 46.3 µM.
`COc1cc(OC)c(OC)cc1/C=C/COC(=O)/C=C/c1cc(OC)c(OC)c(OC)c1OC`: the inhibitory constant (Ki) in data set [6] amounted to 4.84 µM; in data set [8] it was 1.77 µM. Also, in the data set with Mus musculus [7], the “Ratio ED50” value was 3.96. For the same compound, the result in the data set with Mus musculus [9] was Active. In the data set on Mus musculus [10], the Activity came out at 100%.
